Measurements taken from US20220380341A1, “INHIBITORS OF HIV-1 NEF FOR THE TREATMENT OF HIV DISEASE” (priority 2018, published 2022).
Values joined by “and” are separate entries in the source; they are usually repeats but may differ in a detail not shown here. Equal entries are not always repeated. Where two headings read alike, the source gives them in different places.

Key:
HIV-1NL4-3 = assay: HIV-1 infectivity assay in TZM-bl reporter cell line (LTR-luciferase, 48 h); type: cell-based; settings: for inhibition at 1 µM: Human immunodeficiency virus 1, TZM-bl
Procedure: (§1) In particular, the tables show antiretroviral activity as percent inhibition of HIV-1 infectivity at 1 μM. In brief, this assay uses the TZM-bl reporter cell line, which carries a stable copy of the HIV-1 LTR coupled to luciferase. Cells are infected with HIV-1NL4-3 in the presence and absence of each compound, and luciferase activity is measured 48 h later. This assay measures early events in the HIV-1 life cycle, including viral entry, reverse transcription, nuclear entry and integration, and viral transcription. All assays include control cells infected with Nef-defective HIV-1, which replicates at 30-50% of wild-type in this system. Results are normalized to percent inhibition relative to DMSO-treated control cells infected with wild-type HIV-1 (0% inhibition) and DMSO-treated cells infected with Nef-defective HIV-1 (100% of the Nef-dependent effect)—see column 3. In addition, cell viability is measured in the TZM-bl cell line in the presence of each test compound and in the absence of HIV-1 infection, using the Cell Titer Blue cell viability assay (Promega; column 4).

HIV-1 NefNL4-3 = HIV-1 NefNL4-3 (Human immunodeficiency virus type 1 group M subtype B, UniProt P03406, A33V/T15A/T51N/V11I); assay: Surface plasmon resonance binding to recombinant full-length Nef (NL4-3); settings: for T, minutes (residence time): 2-step induced fit, T = 1/koff2; for RU30/RUNef (extent of binding): response units at 30 μM relative to Nef immobilized on the SPR chip
TZM-bl cell line = type: cell-based
Procedure: as §1

[1] = Table 1, TZM-bl cells, 1 μM, 48 h, 100% = Nef-defective HIV-1
[2] = Table 1, uninfected TZM-bl cells, 1 μM, Cell Titer Blue
[3] = 1.0 μM, TZM-bl reporter cell line, Table 4, read-out: % Infectivity Inhibition
[4] = 48 h, Table 1, TZM-bl cells, 1 μM, 48 h, 100% = Nef-defective HIV-1, read-out: HIV-1 Infectivity % Inhibition Norm. to Δ-Nef @ 1 μM
[5] = KD, M, Table 4, SPR fit 2-step induced fit, KD = koff/kon × koff2/(koff2 + kon2)
[6] = Nef NL4-3 Binding, SPR 1:1 or 2-site fitting KD2, Table 1, 2-site fit, second component
[7] = Nef NL4-3 Binding, SPR 2-state fitting KD, Table 1, 2-step induced-fit model
[8] = read-out: Nef NL4-3 Binding, SPR 1:1 or 2-site fitting KD2, Table 1, 2-site fit, second component

Molecule	inhibition at 1 µM (HIV-1NL4-3; [3])	inhibition at 1 µM (HIV-1NL4-3; [4])	Kd (HIV-1 NefNL4-3)	Kd (HIV-1 NefNL4-3; [5])	Kd (HIV-1 NefNL4-3; [7])	T, minutes (residence time) (HIV-1 NefNL4-3; Table 4)	RU30/RUNef (extent of binding) (HIV-1 NefNL4-3)	% Cell Viability (TZM-bl cell line; human, 1 μM)	Percent Viability @ 1 μM (TZM-bl cells) (TZM-bl cell line; human, 1 μM)	other results
1-(1H-1,3-benzodiazol-2-yl)-4-[2-(4-fluorophenyl)ethyl]-3-(1-{[2-(1H-pyrrol-1-yl)phenyl]methyl}piperidin-4-yl)-1H-pyrazol-5-ol [Compound I-805]	–	–	–	–	–	–	–	–	–	HIV-1 Infectivity % Inhibition Norm. to Δ-Nef @ 1 μM (HIV-1NL4-3; [1]): 33.9%; Kd (HIV-1 NefNL4-3; Table 1, 1:1 Langmuir fit where the KD2 cell says '1 to 1 fitting', else 2-site fit, read-out: Nef NL4-3 Binding, SPR 1:1 or 2-site fitting KD1): 596 nM; Percent Viability @ 1 μM (TZM-bl cells) (TZM-bl cell line; [2]): 93.7%
2-{4-[1-(1H-1,3-benzodiazol-2-yl)-4-[2-(4-fluorophenyl)ethyl]-5-hydroxy-1H-pyrazol-3-yl]piperidine-1-carbonyl}benzene-1,3,5-triol [Compound I-729]	–	–	–	–	–	–	–	–	–	HIV-1 Infectivity % Inhibition Norm. to Δ-Nef @ 1 μM (HIV-1NL4-3; [1]): 57.2%; Nef NL4-3 Binding, SPR 1:1 or 2-site fitting KD1 (HIV-1 NefNL4-3; Table 1, 1:1 Langmuir fit where the KD2 cell says '1 to 1 fitting', else 2-site fit): No Interaction; Percent Viability @ 1 μM (TZM-bl cells) (TZM-bl cell line; [2]): 102.4%
CC(C)(C)OC(=O)N1CCC[C@H]1c1nn(-c2nc3ccccc3[nH]2)c(O)c1CCc1ccc(F)cc1 (stereo in doubt) [Compound I-205, tert-butyl 2-[1-(1H-1,3-benzodiazol-2-yl)-4-[2-(4-fluorophenyl)ethyl]-5-hydroxy-1H-pyrazol-3-yl]pyrrolidine-1-carboxylate]	14.3%	14.3%	1090 nM	208 nM	208 nM	9.98E + 01 minutes	5.81E- 03	95.6%	95.6%	Kd (HIV-1 NefNL4-3; [6]): 1100 nM
Oc1c(CCc2ccc(F)cc2)c(-c2ccc(C(F)(F)F)cc2)nn1-c1nc2ccccc2[nH]1 [Compound I-106, 1-(1H-1,3-benzodiazol-2-yl)-4-[2-(4-fluorophenyl)ethyl]-3-[4-(trifluoromethyl)phenyl]-1H-pyrazol-5-ol]	–	98.2%	20200 nM	–	–	–	–	–	84.5%	Kd (HIV-1 NefNL4-3; [6]): 3260 nM
Oc1c(CCc2ccc(F)cc2)c(C2CCOCC2)nn1-c1nc2ccccc2[nH]1 [Compound I-114, 1-(1H-1,3-benzodiazol-2-yl)-4-[2-(4-fluorophenyl)ethyl]-3-(oxan-4-yl)-1H-pyrazol-5-ol]	–	78.2%	1770 nM and 1170 nM	–	5560 nM	–	–	–	99.5%	Kd (HIV-1 NefNL4-3; [6]): 4400 nM
Oc1c(CCc2ccc(F)cc2)c(-c2cncc(Br)c2)nn1-c1nc2ccccc2[nH]1 [Compound I-118, 1-(1H-1,3-benzodiazol-2-yl)-3-(5-bromopyridin-3-yl)-4-[2-(4-fluorophenyl)ethyl]-1H-pyrazol-5-ol]	–	101%	95.6 nM	–	0.216 nM	–	–	–	81.6%	Kd (HIV-1 NefNL4-3; [8]): 17100 nM
Oc1c(CCc2ccc(F)cc2)c(CCCc2ccc(F)cc2)nn1-c1nc2ccccc2[nH]1 [Compound I-120, 1-(1H-1,3-benzodiazol-2-yl)-4-[2-(4-fluorophenyl)ethyl]-3-[3-(4-fluorophenyl)propyl]-1H-pyrazol-5-ol]	–	70.1%	–	–	–	–	–	–	89.1%	–
Oc1c(CCc2ccc(F)cc2)c(-c2cccnc2)nn1-c1nc2ccccc2[nH]1 [Compound I-121, 1-(1H-1,3-benzodiazol-2-yl)-4-[2-(4-fluorophenyl)ethyl]-3-(pyridin-3-yl)-1H-pyrazol-5-ol]	29.6%	29.6%	0.0383 nM	474 nM	474 nM	2.58E + 01 minutes	7.40E- 03	97.8%	97.8%	Kd (HIV-1 NefNL4-3; [8]): 2610 nM
Oc1c(CC2CCCCO2)c(-c2ccc(C(F)(F)F)cc2)nn1-c1nc2ccccc2[nH]1 (stereo not drawn) [Compound I-122, 1-(1H-1,3-benzodiazol-2-yl)-4-[(oxan-2-yl)methyl]-3-[4-(trifluoromethyl)phenyl]-1H-pyrazol-5-ol]	95.4%	95.4%	1240 nM	2250 nM	1860 nM	1.02E + 01 minutes	1.07E- 02	75.2%	75.2%	Kd (HIV-1 NefNL4-3; [8]): 11600 nM
COCCc1nn(-c2nc3ccccc3[nH]2)c(O)c1CCc1ccc(F)cc1 [Compound I-125, 1-(1H-1,3-benzodiazol-2-yl)-4-[2-(4-fluorophenyl)ethyl]-3-(2-methoxyethyl)-1H-pyrazol-5-ol]	21.2%	21.2%	3070 nM	3130 nM	3130 nM	8.87E + 00 minutes	2.86E- 03	100%	101.1%	–
CC(C)(C)OC(=O)N1CCC(CCc2c(-c3cccc(S(C)(=O)=O)c3)nn(-c3cc(C(F)(F)F)n[nH]3)c2O)CC1 [Compound I-605]	–	–	–	–	–	–	–	–	–	% Cell Viability (TZM-bl cell line; 1.0 μM, uninfected TZM-bl, CellTiter-Blue, Table 4): 100%; Percent Viability @ 1 μM (TZM-bl cells) (TZM-bl cell line; Table 2, uninfected TZM-bl cells, 1 μM, Cell Titer Blue): 106.0%
